Laboratory results: ChEMBL document CHEMBL1134245, “Two novel and potent 3-[(o-methoxyphenyl)piperazinylethyl]-5-phenylthien” (Bioorg Med Chem Lett, 2001)
pKi: −log10 of the molar value.

Experiments:
[1] = biological target: Serotonin 1 (5-HT1) receptor (Rattus norvegicus, UniProt P28564+P30940+P19327+P28565); assay: Ancillary Binding affinity towards rat 5-hydroxytryptamine 1 receptor; assay type: protein assay
[2] = biological target: T1, Alpha-1D adrenergic receptor (Rattus norvegicus, UniProt P23944); assay: In vitro functional activity at Alpha-1D receptor in rat aorta; assay type: tissue-based; conditions: read-out: pA2 (converted)
T1 sequence (P23944 whole entry): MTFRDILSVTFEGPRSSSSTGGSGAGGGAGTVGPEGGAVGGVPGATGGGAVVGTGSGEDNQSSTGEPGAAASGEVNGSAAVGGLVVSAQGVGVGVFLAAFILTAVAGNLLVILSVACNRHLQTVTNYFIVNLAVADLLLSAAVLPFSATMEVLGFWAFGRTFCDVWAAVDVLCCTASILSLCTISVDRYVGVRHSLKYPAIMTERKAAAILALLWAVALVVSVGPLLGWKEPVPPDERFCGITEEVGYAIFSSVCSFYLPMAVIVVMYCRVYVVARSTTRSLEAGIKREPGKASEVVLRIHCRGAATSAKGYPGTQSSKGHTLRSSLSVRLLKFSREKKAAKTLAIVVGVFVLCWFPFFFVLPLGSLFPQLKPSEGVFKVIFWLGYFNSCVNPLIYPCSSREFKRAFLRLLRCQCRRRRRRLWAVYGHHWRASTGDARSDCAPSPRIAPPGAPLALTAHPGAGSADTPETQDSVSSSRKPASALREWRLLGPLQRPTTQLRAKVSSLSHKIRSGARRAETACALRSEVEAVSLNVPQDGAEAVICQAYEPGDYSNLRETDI

[3] = biological target: T1, Alpha-1D adrenergic receptor; assay: Binding affinity towards rat Alpha-1D adrenergic receptor
[4] = biological target: T2, Alpha-1A adrenergic receptor (Rattus norvegicus, UniProt P43140); assay: Binding affinity towards rat Alpha-1A adrenergic receptor
T2 sequence (P43140 whole entry): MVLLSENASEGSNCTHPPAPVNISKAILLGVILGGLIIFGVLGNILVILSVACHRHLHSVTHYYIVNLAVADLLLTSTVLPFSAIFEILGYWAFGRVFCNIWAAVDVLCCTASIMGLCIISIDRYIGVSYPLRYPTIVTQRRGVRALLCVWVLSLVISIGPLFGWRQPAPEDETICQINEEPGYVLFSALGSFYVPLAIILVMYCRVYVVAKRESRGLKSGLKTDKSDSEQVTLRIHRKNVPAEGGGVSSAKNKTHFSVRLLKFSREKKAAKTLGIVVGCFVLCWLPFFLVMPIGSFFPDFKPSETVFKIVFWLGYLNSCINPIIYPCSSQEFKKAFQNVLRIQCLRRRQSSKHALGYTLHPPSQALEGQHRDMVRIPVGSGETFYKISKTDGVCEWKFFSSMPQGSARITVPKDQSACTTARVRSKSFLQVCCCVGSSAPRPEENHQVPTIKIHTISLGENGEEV

[5] = biological target: T3, Alpha-1A adrenergic receptor (Bos taurus, UniProt P18130); assay: Binding affinity towards bovine Alpha-1A adrenergic receptor
T3 sequence (P18130 whole entry): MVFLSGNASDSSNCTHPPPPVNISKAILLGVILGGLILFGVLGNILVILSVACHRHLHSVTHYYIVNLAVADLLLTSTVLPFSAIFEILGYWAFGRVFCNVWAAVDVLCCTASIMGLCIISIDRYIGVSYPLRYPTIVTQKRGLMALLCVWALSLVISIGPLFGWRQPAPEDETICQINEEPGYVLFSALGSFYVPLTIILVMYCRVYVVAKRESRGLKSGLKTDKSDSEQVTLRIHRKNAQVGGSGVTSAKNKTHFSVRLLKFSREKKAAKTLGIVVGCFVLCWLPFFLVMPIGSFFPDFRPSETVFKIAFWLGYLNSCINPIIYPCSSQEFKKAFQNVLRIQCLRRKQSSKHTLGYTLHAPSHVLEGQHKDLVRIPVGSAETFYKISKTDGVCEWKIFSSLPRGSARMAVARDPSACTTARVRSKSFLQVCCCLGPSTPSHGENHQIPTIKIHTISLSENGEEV

[6] = biological target: T4, Alpha-2B adrenergic receptor (Rattus norvegicus, UniProt P19328); assay: Ancillary Binding affinity towards rat alpha-2B receptor
T4 sequence (P19328 whole entry): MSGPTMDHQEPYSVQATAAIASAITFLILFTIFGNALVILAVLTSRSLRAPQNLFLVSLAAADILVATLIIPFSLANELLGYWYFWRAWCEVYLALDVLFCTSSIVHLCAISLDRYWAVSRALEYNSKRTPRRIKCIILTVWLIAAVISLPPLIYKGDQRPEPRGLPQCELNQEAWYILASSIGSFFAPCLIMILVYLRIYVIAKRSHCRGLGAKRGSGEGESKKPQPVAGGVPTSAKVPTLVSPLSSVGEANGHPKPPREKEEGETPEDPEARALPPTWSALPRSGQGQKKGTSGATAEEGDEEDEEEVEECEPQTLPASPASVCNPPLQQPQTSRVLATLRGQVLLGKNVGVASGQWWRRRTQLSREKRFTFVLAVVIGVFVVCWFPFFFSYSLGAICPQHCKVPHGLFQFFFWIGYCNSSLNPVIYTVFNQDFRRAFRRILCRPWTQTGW

[7] = biological target: T2, Alpha-1A adrenergic receptor; assay: In vitro functional activity at Alpha-1A adrenergic receptor in rat vas deferens; assay type: tissue-based; conditions: read-out: pA2 (converted)
[8] = biological target: T5, Alpha-1A adrenergic receptor (Homo sapiens, UniProt P35348); assay: Binding affinity for human Alpha-1A adrenergic receptor
T5 sequence (P35348 whole entry): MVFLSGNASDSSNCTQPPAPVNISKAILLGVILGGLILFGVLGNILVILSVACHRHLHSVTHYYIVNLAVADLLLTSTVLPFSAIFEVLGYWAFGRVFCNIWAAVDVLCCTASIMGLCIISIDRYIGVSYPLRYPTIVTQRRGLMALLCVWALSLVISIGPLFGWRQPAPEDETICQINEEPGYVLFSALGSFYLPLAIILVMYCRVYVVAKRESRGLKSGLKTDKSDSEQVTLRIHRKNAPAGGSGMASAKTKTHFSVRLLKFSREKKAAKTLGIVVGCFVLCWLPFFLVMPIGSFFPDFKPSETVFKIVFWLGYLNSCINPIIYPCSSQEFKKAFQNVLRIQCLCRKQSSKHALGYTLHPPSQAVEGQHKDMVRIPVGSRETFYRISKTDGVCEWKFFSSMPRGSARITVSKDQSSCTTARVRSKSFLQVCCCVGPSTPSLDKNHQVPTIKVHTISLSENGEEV

D(2) dopamine receptor = D(2) dopamine receptor (Rattus norvegicus, UniProt P61169); assay: Ancillary Binding affinity towards rat Dopamine receptor D2
[9] = biological target: T1, Alpha-1D adrenergic receptor; assay: In vitro functional activity at Alpha-1D adrenergic receptor in rat aorta; assay type: tissue-based; conditions: read-out: pA2 (converted)

Chain of D(2) dopamine receptor (P61169 whole entry): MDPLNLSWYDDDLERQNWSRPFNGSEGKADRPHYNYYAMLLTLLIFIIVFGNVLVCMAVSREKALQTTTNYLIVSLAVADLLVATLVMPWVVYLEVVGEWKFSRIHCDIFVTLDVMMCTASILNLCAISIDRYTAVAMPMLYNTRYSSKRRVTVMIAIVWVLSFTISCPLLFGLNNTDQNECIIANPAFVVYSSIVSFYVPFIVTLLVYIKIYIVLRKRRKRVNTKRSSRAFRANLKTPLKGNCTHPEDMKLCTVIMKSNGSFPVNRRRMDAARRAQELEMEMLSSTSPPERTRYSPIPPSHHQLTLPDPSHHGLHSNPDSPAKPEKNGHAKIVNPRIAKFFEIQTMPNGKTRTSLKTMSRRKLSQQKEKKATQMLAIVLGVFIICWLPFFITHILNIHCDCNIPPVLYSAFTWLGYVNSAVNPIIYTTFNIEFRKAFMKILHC

Row | Ki [1] | Kb [2] | pKi [3] | pKi [4] | pKi [5] | pKi [6] | Kb [7] | pKi [8] | pKi (D(2) dopamine receptor) | Kb [9] | Structure (SMILES)
1 | 12300 nM | 0.02 nM | 9.77 | 8.46 | 9.46 | 7.18 | 4.37 nM | 8.38 | 7.77 |  | COc1ccccc1N1CCN(CCn2c(=O)[nH]c3scc(-c4cccc(C)c4)c3c2=O)CC1 [A-123189]
2 | 5490 nM |  | 9.67 | 8.61 | 9.56 | 7.15 | 8.51 nM | 8.58 | 7.30 | 0.0251 nM | COc1ccccc1N1CCN(CCn2c(=O)[nH]c3scc(-c4ccccc4)c3c2=O)CC1 [A-119637]
